This is an account of results in patent publication US20240262819A1, “NOVEL COMPOUNDS HAVING INHIBITORY ACTIVITY AGAINST GLUCOSYLCERAMIDE SYNTHASE OR PHARMACEUTICALLY ACCEPTABLE SALT THEREOF, PROCESSES FOR PREPARING THE SAME, AND PHARMACEUTICAL COMPOSITIONS COMPRISING THE SAME” (YUHAN CORPORATION, priority 2021, published 2024).

pIC50: −log10 of the molar value. Where two headings read alike, the source gives them in different places.

The subject of series [1] is GM1 production in Jurkat cells. Nature of the series: cells. It is filed as cell-based. To be noted: Homo sapiens, Jurkat, 72 h.
Series [2] in a line: Evaluation of blood-brain barrier (BBB) permeability through oral administration. To be noted: mouse, in vivo, mice, oral, dose 30 mg/kg, 4 hr; for Kp at 4 h: read-out: Mean brain-plasma drug ratio at 4 hr. In kind it is in vivo, mice. As to the method:
The blood-brain barrier (BBB) permeability was evaluated in mice, with respect to the compounds according to the present invention and the control (ibiglustat). Each compound of the present invention and the control were suspended in 0.5% methyl cellulose containing 0.2% Tween 80 and then orally administered to mice at a dose of 10 or 30 mg/10 ml/kg. After the whole blood was collected from the heart of each mouse at the time of 4 hours after the administration, it was placed in a lithium heparin tube and immediately centrifuged to obtain the plasma. After the exsanguination was carried out through abdominal vena cava incision, the forebrain was taken by dissection of the head. Both of the forebrain and the plasma were stored in a −80° C. freezer until the analysis of drug concentrations therein. For the analysis of drug concentrations therein, the forebrain was immersed in distilled water and then homogenized with a homogenizer to obtain a homogenate. Each plasma and homogenate was treated with acetonitrile to precipitate proteins, vortexed for 15 seconds, and then centrifuged (12700 rpm, 10 min, 4° C.). The obtained supernatant was diluted with an 80% aqueous solution of acetonitrile containing 0.1% formic acid and then analyzed with an LC-MS/MS instrument. LC-MS/MS analysis was carried out with a reversed-phase column, using distilled water containing 0.1% formic acid and acetonitrile as mobile phases. Each eluted material was detected through a mass spectrometer to calculate the drug concentrations thereof. The brain-plasma drug ratio (B/P ratio) was calculated from the drug concentrations in each tissue to evaluate the blood-brain barrier (BBB) permeability.

The mark [3] stands for this setting: read-out: Mean drug concentrations in brain tissue at 4 hr.
Where [4] appears, read: read-out: Mean drug concentrations in plasma at 4 hr.

For the molecule `CCCOc1ccc(-c2ccc3c(c2)CC(C)(C)[C@H]3NC(=O)O[C@@H]2CN3CCC2CC3)cc1F` [Example 20, (S)-quinuclidin-3-yl((R)-5-(3-fluoro-4-propoxyphenyl)-2,2-dimethyl-2,3-dihydro-1H-inden-1-yl)carbamate], the pIC50 (as a rule, the negative decadic logarithm of the IC50, by convention in mol/L) in series [1] is 7.74. For the same molecule, in series [2], the Kp at 4 h is 7.12. Also, the concentration at 4 h in series [2] (setting [3]) was determined as 4070 ng/g; in series [2] (setting [4]), 578 ng/mL.
For `CCOc1c(C)cc(-c2ccc3c(c2)CC(C)(C)[C@H]3NC(=O)O[C@@H]2CN3CCC2CC3)cc1C` [Example 22, (S)-quinuclidin-3-yl((R)-5-(4-ethoxy-3,5-dimethylphenyl)-2,2-dimethyl-2,3-dihydro-1H-inden-1-yl)carbamate], the pIC50 in series [1] is 7.42. Also, the Kp at 4 h in series [2] is 3.37. For the same molecule, the concentration at 4 h in series [2] (setting [3]) was determined as 4400 ng/g; in series [2] (setting [4]), 1320 ng/mL.
Take `COc1ccc(-c2ccc3c(c2)CC(C)(C)[C@H]3NC(=O)O[C@@H]2CN3CCC2CC3)cc1Cl` [Example 14, (S)-quinuclidin-3-yl((R)-5-(3-chloro-4-methoxyphenyl)-2,2-dimethyl-2,3-dihydro-1H-inden-1-yl)carbamate]: the pIC50 in series [1] was 7.31. Also, the Kp at 4 h in series [2] came to 3.92. For the same molecule, the concentration at 4 h came out at 3070 ng/g in series [2] (setting [3]) and 781 ng/mL in series [2] (setting [4]).
`CCOc1ccc(-c2ccc3c(c2)CC(C)(C)[C@H]3NC(=O)O[C@@H]2CN3CCC2CC3)cc1Cl` [Example 15, (S)-quinuclidin-3-yl((R)-5-(3-chloro-4-ethoxyphenyl)-2,2-dimethyl-2,3-dihydro-1H-inden-1-yl)carbamate] gave a pIC50 in series [1] of 7.39. In series [2], the Kp at 4 h was determined as 4.66. Moreover, the concentration at 4 h was 6030 ng/g in series [2] (setting [3]) and 1290 ng/mL in series [2] (setting [4]).
The matching figures for `COc1ccc(-c2cc3c(cc2F)[C@H](NC(=O)O[C@@H]2CN4CCC2CC4)C(C)(C)C3)c(F)c1` [Example 67, (S)-quinuclidin-3-yl((R)-6-fluoro-5-(2-fluoro-4-methoxyphenyl)-2,2-dimethyl-2,3-dihydro-1H-inden-1-yl)carbamate]: 8.28, 4.11, 3670 ng/g and 903 ng/mL.
On the same counts, the results for `CC(C)COc1ccc(-c2cc3c(cc2F)[C@H](NC(=O)O[C@@H]2CN4CCC2CC4)C(C)(C)C3)cc1` [Example 57, (S)-quinuclidin-3-yl((R)-6-fluoro-5-(4-isobutoxyphenyl)-2,2-dimethyl-2,3-dihydro-1H-inden-1-yl)carbamate] are 9.00, 20.9, 1330 ng/g and 63.7 ng/mL.
For the molecule `CCCOc1c(C)cc(-c2ccc3c(c2)CC(C)(C)[C@H]3NC(=O)O[C@@H]2CN3CCC2CC3)cc1C` [Example 9, (S)-quinuclidin-3-yl((R)-5-(3,5-dimethyl-4-propoxyphenyl)-2,2-dimethyl-2,3-dihydro-1H-inden-1-yl)carbamate], in series [1], the pIC50 was 7.66. For the same molecule, the Kp at 4 h in series [2] came out at 6.84. The concentration at 4 h in series [2] (setting [3]) was 2750 ng/g; in series [2] (setting [4]), 403 ng/mL.
On the same counts, the results for `CC(C)c1ccc(-c2cc3c(cc2F)[C@H](NC(=O)O[C@@H]2CN4CCC2CC4)C(C)(C)C3)cc1` [Example 59, (S)-quinuclidin-3-yl((R)-6-fluoro-5-(4-isopropylphenyl)-2,2-dimethyl-2,3-dihydro-1H-inden-1-yl)carbamate] are 8.37, 9.7, 4120 ng/g and 436 ng/mL.
The matching figures for `CCCc1ccc(-c2cc3c(cc2F)[C@H](NC(=O)O[C@@H]2CN4CCC2CC4)C(C)(C)C3)cc1` [Example 61, (S)-quinuclidin-3-yl((R)-6-fluoro-2,2-dimethyl-5-(4-propylphenyl)-2,3-dihydro-1H-inden-1-yl)carbamate]: 7.98, 11.1, 4880 ng/g and 439 ng/mL.
The matching figures for `CCCOc1ccc(-c2ccc3c(c2)CC(C)(C)[C@H]3NC(=O)O[C@@H]2CN3CCC2CC3)cc1Cl` [Example 16, (S)-quinuclidin-3-yl((R)-5-(3-chloro-4-propoxyphenyl)-2,2-dimethyl-2,3-dihydro-1H-inden-1-yl)carbamate]: 7.54, 8.02, 1280 ng/g and 160 ng/mL.
`CC(C)Oc1ccc(-c2ccc3c(c2)CC(C)(C)[C@H]3NC(=O)O[C@@H]2CN3CCC2CC3)cc1F` [Example 21, (S)-quinuclidin-3-yl((R)-5-(3-fluoro-4-isopropoxyphenyl)-2,2-dimethyl-2,3-dihydro-1H-inden-1-yl)carbamate]: the pIC50 in series [1] is 7.68. Besides, in series [2], the Kp at 4 h was found to be 6.48. Moreover, the concentration at 4 h in series [2] (setting [3]) was found to be 9510 ng/g; in series [2] (setting [4]), 1480 ng/mL.
Turning to `CCOc1ccc(-c2cc3c(cc2F)[C@H](NC(=O)O[C@@H]2CN4CCC2CC4)C(C)(C)C3)cc1F` [Example 90, (S)-quinuclidin-3-yl((R)-5-(4-ethoxy-3-fluorophenyl)-6-fluoro-2,2-dimethyl-2,3-dihydro-1H-inden-1-yl)carbamate], the pIC50 in series [1] was 7.58. The Kp at 4 h in series [2] turned out to be 7.42. Moreover, the figures for the concentration at 4 h in series [2] (setting [3]) and in series [2] (setting [4]) were 6480 ng/g and 874 ng/mL, respectively.
On the same counts, the results for `COc1ccc(-c2cc3c(cc2F)[C@H](NC(=O)O[C@@H]2CN4CCC2CC4)C(C)(C)C3)cc1` [Example 82, (S)-quinuclidin-3-yl((R)-6-fluoro-5-(4-methoxyphenyl)-2,2-dimethyl-2,3-dihydro-1H-inden-1-yl)carbamate] are 7.69, 6.32, 5520 ng/g and 896 ng/mL.
On the same counts, the results for `CC(C)Oc1ccc(-c2cc3c(cc2F)[C@H](NC(=O)O[C@@H]2CN4CCC2CC4)C(C)(C)C3)cc1Cl` [Example 66, (S)-quinuclidin-3-yl((R)-5-(3-chloro-4-isopropoxyphenyl)-6-fluoro-2,2-dimethyl-2,3-dihydro-1H-inden-1-yl)carbamate] are 8.30, 7.85, 5490 ng/g and 719 ng/mL.
